Values of other authors in patent US20080254098A1, “Neural tube birth defect reduction with folic acid delivery in catamenial hygiene products” (priority 2007, published 2008).

How the values were obtained:
[1] = Norway; daily folic acid supplements of 0.4 mg or more
[2] = red blood cell folate
[3] = basis of the recommended daily intake of 2 mcg to 3 mcg

| Molecule | reduction of risk of cleft lip, with or without cleft palate [1] [%] | biological half-life [2] | births with neural tube defects (Nova Scotia, Canada, 1998-2000, after fortification began in 1998, 2.58 per 1000 in 1991-1997 before it) | percent of women with one previous neural tube defect pregnancy who had a lower risk of another child with this birth defect (Wald 1991, prescription doses of folic acid versus placebo) [%] | reduction of incidence of neural tube defects by adequate supplementing with folic acid (current estimate, depends on local dietary habits and ethnicity) | absorption rate [3] [%] |
| --- | --- | --- | --- | --- | --- | --- |
| Nc1nc2ncc(CNc3ccc(C(=O)N[C@@H](CCC(=O)O)C(=O)O)cc3)nc2c(=O)[nH]1 [folic acid] | 40 | approximately 8 weeks | 1.17 per 1,000 | 72 | 50%-70% |  |
| cyanocobalamin [vitamin B12] |  |  |  |  |  | 50 |
